Tested on: HFF normal cells (Human foreskin fibroblasts)
Description: Toxicity studies were carried out to evaluate any toxic effect of developed nanoformulations. Cells were treated for 48 h with the following conditions for Zinc-containing nanocomposites: ZnFe2O4/Halloysite, Halloysite, Dexamethasone (Dex), ZnFe2O4/Halloysite/Dex, ZnFe2O4/Halloysite/Dex/PEG, and PEG. Similar protocol was used for nickel-containing nanocomposites. Treatment concentrations were as follows: 0.0375, 0.075, 0.15, and 0.3 mg/mL. In addition, cells were treated with Dex at concentrations to reflect that loaded in the nanocomposite as follows: 0.00181, 0.00362, 0.00725, and 0.01449 mg/mL. […] To choose the optimal dose, cells were exposed to specific doses at different time points. Cells were treated with dose 2 (0.075 mg/mL, see FIG. 9A), dose 3 (0.15 mg/mL, see FIG. 9B), or dose 4 (0.3 mg/mL, see FIG. 9C) for 24, 48, and 72 h.

In the case of `C[C@@H]1C[C@H]2[C@@H]3CCC4=CC(=O)C=C[C@]4(C)[C@@]3(F)[C@@H](O)C[C@]2(C)[C@@]1(O)C(=O)CO` [Dexamethasone, dexamethasone], the toxicity to cells is reported as “induce toxicity” and the “dexamethasone dose found to be less toxic / usable dose” value (human, 48 h) is reported as “up to 0.00362 mg/mL”.

— patent US12161756B2, “Pharmaceutical-loaded nanocomposite for treating pulmonary infections” (Imam Abdulrahman Bin Faisal University, priority 2021, dated 2024)
